In PubChem BioAssay (NCI):
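Values below derive from 48-hour exposures of cells grown in 96-well plates, with endpoints linearly interpolated between the two concentrations bracketing the appropriate inhibition level. GI50 = concentration required for 50% inhibition of growth. TGI: concentration producing complete growth inhibition.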

Tests used:
Test in all cases: NCI-60 cell line screen, 48 h
[1] = system: SR leukemia
[2] = system: SK-MEL-28 melanoma
[3] = system: MCF7 breast
[4] = system: DU-145 prostate
[5] = system: SK-OV-3 ovarian
[6] = system: SF-539 CNS
[7] = system: NCI-H226 lung
[8] = system: SN12C renal
[9] = system: MOLT-4 leukemia
[10] = system: BT-549 breast
[11] = system: NCI-H23 lung
[12] = system: LOX IMVI melanoma
[13] = system: HL-60(TB) leukemia
[14] = system: HCT-116 colon
[15] = system: SK-MEL-5 melanoma
[16] = system: HCT-15 colon
[17] = system: KM12 colon
[18] = system: HT29 colon
[19] = system: A498 renal
[20] = system: OVCAR-3 ovarian
[21] = system: MDA-MB-435
[22] = system: M14 melanoma
[23] = system: 786-0 renal
[24] = system: UACC-62 melanoma
[25] = system: SNB-19 CNS
[26] = system: MALME-3M melanoma
[27] = system: CCRF-CEM leukemia
[28] = system: HCC-2998 colon
[29] = system: A549 NSCLC
[30] = system: RPMI-8226 leukemia
[31] = system: ACHN renal
[32] = system: CAKI-1 renal
[33] = system: T-47D breast
[34] = system: K-562 leukemia
[35] = system: OVCAR-8 ovarian
[36] = system: SF-268 CNS
[37] = system: IGROV1 ovarian
[38] = system: HOP-92 NSCLC
[39] = system: NCI-H460 lung
[40] = system: HS 578T breast
[41] = system: PC-3 prostate
[42] = system: RXF 393 renal
[43] = system: SNB-75 CNS
[44] = system: U251 CNS
[45] = system: UACC-257 melanoma
[46] = system: HOP-62 NSCLC
[47] = system: COLO 205 colon
[48] = system: OVCAR-5 ovarian
[49] = system: NCI-H522 lung
[50] = system: UO-31 renal
[51] = system: SW-620 colon
[52] = system: SF-295 CNS
[53] = system: MDA-MB-468 breast
[54] = system: MDA-MB-231 breast
[55] = system: EKVX NSCLC
[56] = system: OVCAR-4 ovarian
[57] = system: TK-10 renal
[58] = system: SK-MEL-2 melanoma
[59] = system: NCI/ADR-RES ovarian

## CCCCSc1nc(NCCc2c[nH]c3ccccc23)c(C#N)c(-c2ccccc2)n1
[1]
  GI50: 4.88 µM
  TGI: > 100 µM
[2]
  GI50: 14.5 µM
  TGI: 29.1 µM
[3]
  GI50: 5.26 µM
  TGI: 19.7 µM
[4]
  GI50: 14.1 µM
  TGI: 32.1 µM
[5]
  GI50: 22.4 µM
  TGI: 61.3 µM
[6]
  GI50: 12.3 µM
  TGI: 27.2 µM
[7]
  GI50: 12.4 µM
  TGI: 27.3 µM
[8]
  GI50: 12.7 µM
  TGI: 25.5 µM
[9]
  GI50: 5.73 µM
  TGI: 78.8 µM
[10]
  GI50: 12.3 µM
  TGI: 25.7 µM
[11]
  GI50: 12.8 µM
  TGI: 27.9 µM
[12]
  GI50: 4.48 µM
  TGI: 15.5 µM
[13]
  GI50: 16 µM
  TGI: 82.5 µM
[14]
  GI50: 3.82 µM
  TGI: 16.5 µM
[15]
  GI50: 9.88 µM
  TGI: 21.5 µM
[16]
  GI50: 4.44 µM
  TGI: 16.9 µM
[17]
  GI50: 4.59 µM
  TGI: 18 µM
[18]
  GI50: 4.34 µM
  TGI: 16.4 µM
[19]
  GI50: 16.2 µM
  TGI: 31.6 µM
[20]
  GI50: 14.7 µM
  TGI: 29.1 µM
[21]
  GI50: 13.7 µM
  TGI: 27.4 µM
[22]
  GI50: 12.3 µM
  TGI: 26.9 µM
[23]
  GI50: 10.5 µM
  TGI: 27 µM
[24]
  GI50: 13.7 µM
  TGI: 26.6 µM
[25]
  GI50: 17.2 µM
  TGI: 34.6 µM
[26]
  GI50: 17.7 µM
  TGI: 32.6 µM
[27]
  GI50: 5.38 µM
  TGI: > 100 µM
[28]
  GI50: 7.92 µM
  TGI: 21.8 µM
[29]
  GI50: 22 µM
  TGI: 82.3 µM
[30]
  GI50: 12.1 µM
  TGI: > 100 µM
[31]
  GI50: 12.7 µM
  TGI: 28.5 µM
[32]
  GI50: 5.56 µM
  TGI: 20.7 µM
[33]
  GI50: 3.78 µM
  TGI: 19.4 µM
[34]
  GI50: 4.91 µM
  TGI: > 100 µM
[35]
  GI50: 23.7 µM
  TGI: > 100 µM
[36]
  GI50: 14.6 µM
  TGI: 43.7 µM
[37]
  GI50: 16 µM
  TGI: 32.3 µM
[38]
  GI50: 5.54 µM
  TGI: 25.4 µM
[39]
  GI50: 4.2 µM
  TGI: 18.4 µM
[40]
  GI50: 12.5 µM
  TGI: 61.5 µM
[41]
  GI50: 4.42 µM
  TGI: 37.9 µM
[42]
  GI50: 11.9 µM
  TGI: 25.8 µM
[43]
  GI50: 14.1 µM
  TGI: 47 µM
[44]
  GI50: 11.4 µM
  TGI: 25.3 µM
[45]
  GI50: 20.4 µM
  TGI: 47 µM
[46]
  GI50: 12.8 µM
  TGI: 29.7 µM
[47]
  GI50: 11.5 µM
  TGI: 29.5 µM
[48]
  GI50: 12.6 µM
  TGI: 26 µM
[49]
  GI50: 15.5 µM
  TGI: 32.5 µM
[50]
  GI50: 14.6 µM
  TGI: 34.3 µM
[51]
  GI50: 6.48 µM
  TGI: 23.3 µM
[52]
  GI50: 13.8 µM
  TGI: 29.8 µM
[53]
  GI50: 5.3 µM
  TGI: 18.8 µM
[54]
  GI50: 11.1 µM
  TGI: 25.4 µM
[55]
  GI50: 10 µM
  TGI: 32.4 µM
[56]
  GI50: 11.8 µM
  TGI: 34.8 µM
[57]
  GI50: 26.1 µM
  TGI: 54.7 µM

## CN(C)CCn1c2ccccc2c2nc3ccc([N+](=O)[O-])cc3nc21
[1]
  GI50: 0.322 µM
  TGI: 1.69 µM
[2]
  GI50: 2.54 µM
  TGI: > 100 µM
[4]
  GI50: 1.71 µM
  TGI: 9.91 µM
[58]
  GI50: 3.27 µM
  TGI: 7.64 µM
[5]
  GI50: 2.49 µM
  TGI: 7.5 µM
[6]
  GI50: 0.645 µM
  TGI: 3.85 µM
[7]
  GI50: 1.27 µM
  TGI: 3.26 µM
[8]
  GI50: 0.813 µM
  TGI: 4.62 µM
[9]
  GI50: 0.41 µM
  TGI: 2.9 µM
[11]
  GI50: 1.2 µM
  TGI: 3.64 µM
[12]
  GI50: 0.541 µM
  TGI: 1.95 µM
[13]
  GI50: 0.256 µM
  TGI: 0.698 µM
[14]
  GI50: 0.752 µM
  TGI: 5.94 µM
[15]
  GI50: 0.666 µM
  TGI: 2.05 µM
[16]
  GI50: 0.725 µM
  TGI: 4.06 µM
[17]
  GI50: 1.53 µM
  TGI: 9.15 µM
[19]
  GI50: 1.74 µM
  TGI: 4.56 µM
[20]
  GI50: 2.01 µM
  TGI: 7.34 µM
[21]
  GI50: 2.3 µM
  TGI: > 100 µM
[22]
  GI50: 1.71 µM
  TGI: > 100 µM
[23]
  GI50: 1.31 µM
  TGI: 6.55 µM
[24]
  GI50: 0.928 µM
  TGI: 2.9 µM
[25]
  GI50: 2.32 µM
  TGI: 10.4 µM
[26]
  GI50: 0.709 µM
  TGI: 3.41 µM
[27]
  GI50: 0.667 µM
  TGI: 4.37 µM
[28]
  GI50: 1.47 µM
  TGI: 3.72 µM
[29]
  GI50: 0.438 µM
  TGI: 1.83 µM
[30]
  GI50: 1.23 µM
  TGI: 4.3 µM
[31]
  GI50: 0.322 µM
  TGI: 1.1 µM
[32]
  GI50: 0.368 µM
  TGI: 2.71 µM
[59]
  GI50: 1.28 µM
  TGI: 11.9 µM
[34]
  GI50: 0.931 µM
  TGI: 11.3 µM
[35]
  GI50: 0.907 µM
  TGI: 5.51 µM
[36]
  GI50: 1.75 µM
  TGI: 13.2 µM
[37]
  GI50: 1.07 µM
  TGI: 9.46 µM
[38]
  GI50: 0.197 µM
  TGI: 2.29 µM
[39]
  GI50: 0.395 µM
  TGI: 2.19 µM
[40]
  GI50: 2.16 µM
  TGI: > 100 µM
[41]
  GI50: 1.14 µM
  TGI: > 100 µM
[42]
  GI50: 1.83 µM
  TGI: 5.83 µM
[44]
  GI50: 0.772 µM
  TGI: 3.96 µM
[45]
  GI50: 1.86 µM
  TGI: 5.95 µM
[46]
  GI50: 1.08 µM
  TGI: 4.76 µM
[48]
  GI50: 2.31 µM
  TGI: 6.51 µM
[49]
  GI50: 0.988 µM
  TGI: 4.22 µM
[50]
  GI50: 0.248 µM
  TGI: 1.99 µM
[51]
  GI50: 0.691 µM
  TGI: > 100 µM
[52]
  GI50: 0.477 µM
  TGI: 3.09 µM
[53]
  GI50: 0.514 µM
  TGI: 2.27 µM
[54]
  GI50: 1.87 µM
  TGI: 5.7 µM
[55]
  GI50: 1.6 µM
  TGI: 5 µM
[56]
  GI50: 2.76 µM
  TGI: > 100 µM
[57]
  GI50: 2.35 µM
  TGI: 6.37 µM
